For one compound, IC50 results are on record in PMC3480357, “Fragment-Hopping-Based Discovery of a Novel Chemical Series of Proto-Oncogene PIM-1 Kinase Inhibitors” (PLoS ONE, 2012).

The target in one experiment is PIM-3 (Homo sapiens, UniProt Q86V86). Put plainly: PIM-3 kinase ADP Hunter Plus assay. Type of experiment: biochemical. Particulars: 100 µM ATP, Figure 1. As to the method:
Kinase activity was measured with the commercial ADP Hunter™ Plus assay (DiscoveRx Ref. #33-016), a homogeneous assay measuring ADP accumulation, as a universal product of kinase activity. The assay was conducted following the manufacturer’s recommendations and adapting the protein and substrate concentrations for optimal conditions. The kinase assay buffer was 15 mM HEPES, pH 7.4, 20 mM NaCl, 1 mM EGTA, 0.02% Tween-20, 10 mM MgCl2 and 0.1 mg/ml BGG (bovine γ-globulin). All PIM kinase assays were performed with 100 µM PIMtide ([…]) as the peptide substrate and 100 µM ATP. The protein concentrations were 50, 350 and 500 ng/µl for PIM-1, 2 and 3, respectively. To calculate the IC50 of the ETP-compounds, serial 1∶5 dilutions were prepared and the reaction was started with the addition of ATP. The reaction was incubated for 1 h at 25°C. Reagents A and B (DiscoveRx) were sequentially added to the wells, and the plates were incubated for 30 min at 37°C. Fluorescence counts were read in a Victor instrument (Perkin Elmer) with the recommended settings (544 and 580 nm as the excitation and emission wavelengths, respectively). Values were plotted against the inhibitor concentrations and fit to a sigmoid dose–response curve using GraphPad software.

In another experiment the target is PIM-2 (Homo sapiens, UniProt Q9P1W9). Kind of experiment: PIM-2 kinase ADP Hunter Plus assay. The class given is biochemical. Particulars: 100 µM ATP.
PIM-2, sequence (Q9P1W9 whole entry): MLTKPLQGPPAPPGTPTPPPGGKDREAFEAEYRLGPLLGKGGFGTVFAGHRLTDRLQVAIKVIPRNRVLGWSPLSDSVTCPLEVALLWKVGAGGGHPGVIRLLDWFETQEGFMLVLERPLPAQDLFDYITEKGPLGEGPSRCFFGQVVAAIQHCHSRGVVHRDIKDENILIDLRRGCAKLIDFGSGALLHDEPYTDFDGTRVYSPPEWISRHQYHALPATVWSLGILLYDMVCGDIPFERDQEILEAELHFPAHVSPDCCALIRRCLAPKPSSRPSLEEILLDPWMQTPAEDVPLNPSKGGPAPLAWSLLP

Each structure is given as a SMILES string.

As a reminder, the IC50 is the concentration that gives 50% inhibition. As to `CC(=O)c1cccc(-c2cnc3ccc(NCC4CC4)nn23)c1` [Compound 2, reference compound], the half-inhibitory concentration (IC50) was 1000 nM at PIM-3 and 443 nM at PIM-2.
